Reference: patent US20170150719A1, “FUNGICIDAL PYRAZOLES AND THEIR MIXTURES” (E I DU PONT DE NEMOURS AND COMPANY, priority 2010, published 2017)
Marks after values point to notes of the source that are not given here.

Each molecule was assayed on Blumeria graminis f. sp. tritici (assay: Test I: wheat powdery mildew, preventive spray on wheat seedlings, visual disease rating). Conditions: wheat powdery mildew; 100 = 100% disease control, 0 = no disease control relative to the controls.
Method: General protocol for preparing test suspensions for Tests A-I: the test compounds were first dissolved in acetone in an amount equal to 3% of the final volume and then suspended at the desired concentration (in ppm) in acetone and purified water (50/50 mix by volume) containing 250 ppm of the surfactant Trem® 014 (polyhydric alcohol esters). The resulting test suspensions were then used in Tests A-I. Each test was conducted in triplicate, and the results were averaged. Spraying a 200 ppm test suspension to the point of run-off on the test plants was the equivalent of a rate of about 800 g/ha. Unless otherwise indicated, the rating values indicate a 200 ppm test suspension was used. (An asterisk “*” next to the rating value indicates a 40 ppm test suspension was used.)
The test suspension was sprayed to the point of run-off on wheat seedlings. The following day the seedlings were inoculated with a spore dust of Blumeria graminis f. sp. tritici (also known as Erysiphe graminis f. sp. tritici, the causal agent of wheat powdery mildew) and incubated in a growth chamber at 20° C. for 8 days, after which time visual disease ratings were made.

Row | Structure (SMILES) | Test I rating (disease control)
1 | COc1cc(F)c(Nc2c(-c3c(F)cccc3F)c(C)nn2C)c(F)c1 [compound 72] | 98%
2 | Cc1nn(C)c(Oc2c(F)cc(C#N)cc2F)c1-c1ccccc1Cl [compound 75] | 98%
3 | Cc1nn(C)c(Oc2c(F)cc(C#N)cc2F)c1-c1ccccc1Br [compound 76] | 99%
4 | COc1ccc(-c2c(C)nn(C)c2Nc2ccc(Cl)cc2Cl)c(Cl)c1 [compound 77] | 100%
5 | Cc1nn(C)c(Nc2ccc(Cl)cc2Cl)c1-c1c(F)cccc1Cl [compound 78] | 100%
6 | Cc1nn(C)c(Oc2ccc(C#N)cc2Cl)c1-c1ccc(F)cc1Br [compound 80] | 99%
7 | Cc1nn(C)c(Nc2c(F)cc(C#N)cc2F)c1-c1ccc(F)cc1F [compound 83] | 100%
8 | Cc1nn(C)c(Nc2c(F)cc(F)cc2Cl)c1-c1c(F)cccc1Cl [compound 87] | 100%
9 | Cc1nn(C)c(Nc2ccc(Cl)cc2Cl)c1-c1ccc(F)cc1Cl [compound 88] | 100%
10 | Cc1nn(C)c(Nc2c(F)cc(F)cc2F)c1-c1c(F)cccc1F [compound 89] | 100%
11 | Cc1nn(C)c(Nc2c(F)cc(C#N)cc2F)c1-c1c(F)cccc1F [compound 90] | 99%
12 | Cc1nn(C)c(Oc2c(F)cc(C#N)cc2F)c1-c1ccccc1F [compound 91] | 99%

These molecules were tested on Septoria nodorum (assay: Test E: Septoria glume blotch, preventive spray on wheat seedlings, visual disease rating). Conditions: Septoria glume blotch; 100 = 100% disease control, 0 = no disease control relative to the controls.

Row | Structure (SMILES) | Test E rating (disease control)
13 | COc1cc(F)c(Nc2c(-c3c(F)cccc3F)c(C)nn2C)c(F)c1 [compound 72] | 0%
14 | Cc1nn(C)c(Oc2c(F)cc(C#N)cc2F)c1-c1ccccc1Cl [compound 75] | 99%
15 | Cc1nn(C)c(Oc2c(F)cc(C#N)cc2F)c1-c1ccccc1Br [compound 76] | 99%
16 | COc1ccc(-c2c(C)nn(C)c2Nc2ccc(Cl)cc2Cl)c(Cl)c1 [compound 77] | 0%
17 | Cc1nn(C)c(Nc2ccc(Cl)cc2Cl)c1-c1c(F)cccc1Cl [compound 78] | 0%
18 | Cc1nn(C)c(Oc2ccc(C#N)cc2Cl)c1-c1ccc(F)cc1Br [compound 80] | 60%
19 | Cc1nn(C)c(Nc2c(F)cc(C#N)cc2F)c1-c1ccc(F)cc1F [compound 83] | 87%
20 | Cc1nn(C)c(Nc2c(F)cc(F)cc2Cl)c1-c1c(F)cccc1Cl [compound 87] | 87%
21 | Cc1nn(C)c(Nc2ccc(Cl)cc2Cl)c1-c1ccc(F)cc1Cl [compound 88] | 51%
22 | Cc1nn(C)c(Nc2c(F)cc(F)cc2F)c1-c1c(F)cccc1F [compound 89] | 82%
23 | Cc1nn(C)c(Nc2c(F)cc(C#N)cc2F)c1-c1c(F)cccc1F [compound 90] | 87%
24 | Cc1nn(C)c(Oc2c(F)cc(C#N)cc2F)c1-c1ccccc1F [compound 91] | 94%

What follows are molecules tested on Puccinia recondita f. sp. tritici (assay: Test G: wheat leaf rust, spray after inoculation (curative) on wheat seedlings, visual disease rating). Conditions: sprayed after inoculation, 100 = 100% disease control, 0 = no disease control.
Format: in vivo
From the text: (§1) A hyphen (-) indicates no test results.

Row | Structure (SMILES) | Test G rating (disease control)
25 | COc1cc(F)c(Nc2c(-c3c(F)cccc3F)c(C)nn2C)c(F)c1 [compound 72] | 0%
26 | Cc1nn(C)c(Oc2c(F)cc(C#N)cc2F)c1-c1ccccc1Cl [compound 75] | 0%
27 | Cc1nn(C)c(Oc2c(F)cc(C#N)cc2F)c1-c1ccccc1Br [compound 76] | 0%
28 | COc1ccc(-c2c(C)nn(C)c2Nc2ccc(Cl)cc2Cl)c(Cl)c1 [compound 77] | 0%
29 | Cc1nn(C)c(Nc2ccc(Cl)cc2Cl)c1-c1c(F)cccc1Cl [compound 78] | 9%
30 | Cc1nn(C)c(Oc2ccc(C#N)cc2Cl)c1-c1ccc(F)cc1Br [compound 80] | 9%
31 | Cc1nn(C)c(Nc2c(F)cc(C#N)cc2F)c1-c1ccc(F)cc1F [compound 83] | 0%
32 | Cc1nn(C)c(Nc2c(F)cc(F)cc2Cl)c1-c1c(F)cccc1Cl [compound 87] | 0%
33 | Cc1nn(C)c(Nc2ccc(Cl)cc2Cl)c1-c1ccc(F)cc1Cl [compound 88] | 41%
34 | Cc1nn(C)c(Nc2c(F)cc(F)cc2F)c1-c1c(F)cccc1F [compound 89] | 9%
35 | Cc1nn(C)c(Nc2c(F)cc(C#N)cc2F)c1-c1c(F)cccc1F [compound 90] | 0%
36 | Cc1nn(C)c(Oc2c(F)cc(C#N)cc2F)c1-c1ccccc1F [compound 91] | 0%

These molecules were tested on Alternaria solani (assay: Test B: tomato early blight, preventive spray on tomato seedlings, visual disease rating). Conditions: tomato early blight; 100 = 100% disease control, 0 = no disease control relative to the controls.

Row | Structure (SMILES) | Test B rating (disease control)
37 | COc1cc(F)c(Nc2c(-c3c(F)cccc3F)c(C)nn2C)c(F)c1 [compound 72] | 99%
38 | Cc1nn(C)c(Oc2c(F)cc(C#N)cc2F)c1-c1ccccc1Cl [compound 75] | 99%
39 | Cc1nn(C)c(Oc2c(F)cc(C#N)cc2F)c1-c1ccccc1Br [compound 76] | 97%
40 | COc1ccc(-c2c(C)nn(C)c2Nc2ccc(Cl)cc2Cl)c(Cl)c1 [compound 77] | 98%
41 | Cc1nn(C)c(Nc2ccc(Cl)cc2Cl)c1-c1c(F)cccc1Cl [compound 78] | 65%
42 | Cc1nn(C)c(Oc2ccc(C#N)cc2Cl)c1-c1ccc(F)cc1Br [compound 80] | 0%
43 | Cc1nn(C)c(Nc2c(F)cc(C#N)cc2F)c1-c1ccc(F)cc1F [compound 83] | 99%
44 | Cc1nn(C)c(Nc2c(F)cc(F)cc2Cl)c1-c1c(F)cccc1Cl [compound 87] | 93%
45 | Cc1nn(C)c(Nc2ccc(Cl)cc2Cl)c1-c1ccc(F)cc1Cl [compound 88] | 95%
46 | Cc1nn(C)c(Nc2c(F)cc(F)cc2F)c1-c1c(F)cccc1F [compound 89] | 99%
47 | Cc1nn(C)c(Nc2c(F)cc(C#N)cc2F)c1-c1c(F)cccc1F [compound 90] | 87%
48 | Cc1nn(C)c(Oc2c(F)cc(C#N)cc2F)c1-c1ccccc1F [compound 91] | 99%

These molecules were tested on Septoria tritici (assay: Test F: wheat leaf blotch, preventive spray on wheat seedlings, visual disease rating). Conditions: 100 = 100% disease control, 0 = no disease control relative to the controls.
Format: in vivo
Set-up: Test F rating (disease control), value marked *: concentration or dose not given beside the values
From the text: as §1

Row | Structure (SMILES) | Test F rating (disease control)
49 | COc1cc(F)c(Nc2c(-c3c(F)cccc3F)c(C)nn2C)c(F)c1 [compound 72] | 100%
50 | Cc1nn(C)c(Oc2c(F)cc(C#N)cc2F)c1-c1ccccc1Cl [compound 75] | 100%
51 | Cc1nn(C)c(Oc2c(F)cc(C#N)cc2F)c1-c1ccccc1Br [compound 76] | 99%
52 | Cc1nn(C)c(Nc2c(F)cc(C#N)cc2F)c1-c1ccc(F)cc1F [compound 83] | 100%
53 | Cc1nn(C)c(Nc2c(F)cc(F)cc2Cl)c1-c1c(F)cccc1Cl [compound 87] | 100%
54 | Cc1nn(C)c(Nc2c(F)cc(F)cc2F)c1-c1c(F)cccc1F [compound 89] | 100%
55 | Cc1nn(C)c(Nc2c(F)cc(C#N)cc2F)c1-c1c(F)cccc1F [compound 90] | 100%
56 | Cc1nn(C)c(Oc2c(F)cc(C#N)cc2F)c1-c1ccccc1F [compound 91] | 100%

Same assay, conditions: rating marked with asterisk (*), other test condition, not explained in the text shown

Row | Structure (SMILES) | Test F rating (disease control), value marked *
57 | COc1ccc(-c2c(C)nn(C)c2Nc2ccc(Cl)cc2Cl)c(Cl)c1 [compound 77] | 99* %
58 | Cc1nn(C)c(Nc2ccc(Cl)cc2Cl)c1-c1c(F)cccc1Cl [compound 78] | 99* %
59 | Cc1nn(C)c(Oc2ccc(C#N)cc2Cl)c1-c1ccc(F)cc1Br [compound 80] | 100* %
60 | Cc1nn(C)c(Nc2ccc(Cl)cc2Cl)c1-c1ccc(F)cc1Cl [compound 88] | 100* %

What follows are molecules tested on Puccinia recondita f. sp. tritici (assay: Test H: wheat leaf rust, preventive spray on wheat seedlings, visual disease rating). Conditions: wheat leaf rust, sprayed the day before inoculation; 100 = 100% disease control, 0 = no disease control.

Row | Structure (SMILES) | Test H rating (disease control)
61 | COc1cc(F)c(Nc2c(-c3c(F)cccc3F)c(C)nn2C)c(F)c1 [compound 72] | 97%
62 | Cc1nn(C)c(Oc2c(F)cc(C#N)cc2F)c1-c1ccccc1Cl [compound 75] | 99%
63 | Cc1nn(C)c(Oc2c(F)cc(C#N)cc2F)c1-c1ccccc1Br [compound 76] | 99%
64 | COc1ccc(-c2c(C)nn(C)c2Nc2ccc(Cl)cc2Cl)c(Cl)c1 [compound 77] | 99%
65 | Cc1nn(C)c(Nc2ccc(Cl)cc2Cl)c1-c1c(F)cccc1Cl [compound 78] | 99%
66 | Cc1nn(C)c(Oc2ccc(C#N)cc2Cl)c1-c1ccc(F)cc1Br [compound 80] | 99%
67 | Cc1nn(C)c(Nc2c(F)cc(C#N)cc2F)c1-c1ccc(F)cc1F [compound 83] | 100%
68 | Cc1nn(C)c(Nc2c(F)cc(F)cc2Cl)c1-c1c(F)cccc1Cl [compound 87] | 100%
69 | Cc1nn(C)c(Nc2ccc(Cl)cc2Cl)c1-c1ccc(F)cc1Cl [compound 88] | 100%
70 | Cc1nn(C)c(Nc2c(F)cc(F)cc2F)c1-c1c(F)cccc1F [compound 89] | 99%
71 | Cc1nn(C)c(Nc2c(F)cc(C#N)cc2F)c1-c1c(F)cccc1F [compound 90] | 98%
72 | Cc1nn(C)c(Oc2c(F)cc(C#N)cc2F)c1-c1ccccc1F [compound 91] | 99%

These molecules were tested on Botrytis cinerea (assay: Test A: tomato Botrytis, preventive spray on tomato seedlings, visual disease rating). Conditions: tomato Botrytis; 100 = 100% disease control, 0 = no disease control relative to the controls.

Row | Structure (SMILES) | Test A rating (disease control)
73 | COc1cc(F)c(Nc2c(-c3c(F)cccc3F)c(C)nn2C)c(F)c1 [compound 72] | 100%
74 | Cc1nn(C)c(Oc2c(F)cc(C#N)cc2F)c1-c1ccccc1Cl [compound 75] | 100%
75 | Cc1nn(C)c(Oc2c(F)cc(C#N)cc2F)c1-c1ccccc1Br [compound 76] | 100%
76 | COc1ccc(-c2c(C)nn(C)c2Nc2ccc(Cl)cc2Cl)c(Cl)c1 [compound 77] | 99%
77 | Cc1nn(C)c(Nc2ccc(Cl)cc2Cl)c1-c1c(F)cccc1Cl [compound 78] | 99%
78 | Cc1nn(C)c(Oc2ccc(C#N)cc2Cl)c1-c1ccc(F)cc1Br [compound 80] | 98%
79 | Cc1nn(C)c(Nc2c(F)cc(C#N)cc2F)c1-c1ccc(F)cc1F [compound 83] | 100%
80 | Cc1nn(C)c(Nc2c(F)cc(F)cc2Cl)c1-c1c(F)cccc1Cl [compound 87] | 100%
81 | Cc1nn(C)c(Nc2ccc(Cl)cc2Cl)c1-c1ccc(F)cc1Cl [compound 88] | 100%
82 | Cc1nn(C)c(Nc2c(F)cc(F)cc2F)c1-c1c(F)cccc1F [compound 89] | 100%
83 | Cc1nn(C)c(Nc2c(F)cc(C#N)cc2F)c1-c1c(F)cccc1F [compound 90] | 99%
84 | Cc1nn(C)c(Oc2c(F)cc(C#N)cc2F)c1-c1ccccc1F [compound 91] | 99%
